Results on 42 compounds are retold here after PMC4060991, “The Human Orphan Nuclear Receptor Tailless (TLX, NR2E1) Is Druggable” (PLoS ONE, 2014).

In the experiment the target is TLX LBD (Homo sapiens, UniProt Q9Y466). Description: Differential scanning fluorimetry (DSF) on purified TLX LBD.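 Further: thermal unfolding followed by Sypro-Orange fluorescence (excitation 465 nm, emission 610 nm) in 384-well plates, Tm taken from the first derivative of the denaturation curve, duplicate samples.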 Particulars: compound 500 µM. Format: binding. Also on record: cDNA fragments encoding human TLX LBD (a.a. 187–385) were cloned; His6 followed by TEV protease cleavage site (N); made in house; host or cells: E. coli BL21 (DE3) star. A general note: DSF heats the sample and reads unfolding from a dye or from intrinsic fluorescence.
Chain of TLX LBD (Q9Y466 187-385): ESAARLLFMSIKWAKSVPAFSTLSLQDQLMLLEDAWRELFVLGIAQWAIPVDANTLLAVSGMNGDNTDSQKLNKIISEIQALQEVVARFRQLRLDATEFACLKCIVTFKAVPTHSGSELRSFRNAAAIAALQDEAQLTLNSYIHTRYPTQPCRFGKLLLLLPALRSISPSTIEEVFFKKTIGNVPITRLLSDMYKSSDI

Where a name gives a salt, the structure may show the parent alone.

`O=NN(CCCl)C(=O)NCc1ccc[n+]([O-])c1` [1-(2-chloroethyl)-1-nitroso-3-[(1-oxidopyridin-1-ium-3-yl)methyl]urea]: the “hit in DSF screen (able to bind TLX LBD, Tm shift 0.9°C or more), Table S1” value is “Hits from DSF”.

For `Cc1cc(N)c2ccccc2[n+]1CCCCCCCCCC[n+]1c(C)cc(N)c2ccccc21.[Cl-].[Cl-]` [1-[10-(4-amino-2-methylquinolin-1-ium-1-yl)decyl]-2-methylquinolin-1-ium-4-amine chloride], the “hit in DSF screen (able to bind TLX LBD, Tm shift 0.9°C or more), Table S1” value was “Hits from DSF”. Then `Cc1ccc(S(=O)(=O)c2ccc([N+](=O)[O-])o2)cc1` [2-(4-methylphenyl)sulfonyl-5-nitrofuran], with “Hits from DSF”; and `O=[N+]([O-])c1cc(C(F)(F)F)cc([N+](=O)[O-])c1CCl` [2-(chloromethyl)-1,3-dinitro-5-(trifluoromethyl)benzene], with “Hits from DSF”; and `COc1cc2c(cc1O)CC[C@@H]1[C@@H]2CC[C@]2(C)[C@@H](O)CC[C@@H]12` [2-Methoxyestradiol], with “Hits from DSF”. With `COC1CC(CC2CCC(C)C(C(C)C(=O)O)O2)OC2(OC(C)(C3CCC(C)(C4OC(C5OC(O)(CO)C(C)CC5C)CC4C)O3)CC2C)C1C` (stereo not drawn) [2-[6-[[2-[5-[5-[6-hydroxy-6-(hydroxymethyl)-3,5-dimethyloxan-2-yl]-3-methyloxolan-2-yl]-5-methyloxolan-2-yl]-9-methoxy-2,4,10-trimethyl-1,6-dioxaspiro[4.5]decan-7-yl]methyl]-3-methyloxan-2-yl]propanoic acid], the “hit in DSF screen (able to bind TLX LBD, Tm shift 0.9°C or more), Table S1” value was “Hits from DSF”.

As to `O=C1c2ccccc2C(=O)C1C(c1ccc([N+](=O)[O-])cc1)C1C(=O)c2ccccc2C1=O` [2-[(1,3-dioxoinden-2-yl)-(4-nitrophenyl)methyl]indene-1,3-dione], the “hit in DSF screen (able to bind TLX LBD, Tm shift 0.9°C or more), Table S1” value is listed as “Hits from DSF”.

`CCCCCCCCCCCCC(O)C(=O)O` (stereo not drawn) [2-hydroxytetradecanoic acid]: the “hit in DSF screen (able to bind TLX LBD, Tm shift 0.9°C or more), Table S1” value was “Hits from DSF”. For `CCCCCC(CN1CCOCC1)C(=O)C=Cc1ccccc1` (stereo not drawn) [4-(morpholin-4-ylmethyl)-1-phenylnon-1-en-3-one] the value was “Hits from DSF”; for `O=C(O)c1ccc(NC(c2ccccc2)c2ccc3cccnc3c2O)cc1` (stereo not drawn) [4-[[(8-hydroxyquinolin-7-yl)-phenylmethyl]amino]benzoic acid], “Hits from DSF”. For `N#Cc1c(O)c2c(-c3ccc(-c4ccccc4O)cc3)csc2[nH]c1=O` [6,7-Dihydro-4-hydroxy-3-(2'-hydroxy[1,1'-biphenyl]-4-yl)-6-oxo-thieno[2,3-b]pyridine-5-carbonitrile] the value was “Hits from DSF”; for `CC(C)C1(Cl)CCC2C3(C)CCCC(C)(C(=O)O)C3CC(Cl)C2(Cl)C1Cl` (stereo not drawn) [7,8,8a,9-tetrachloro-1,4a-dimethyl-7-propan-2-yl-2,3,4,4b,5,6,8,9,10,10a-decahydrophenanthrene-1-carboxylic acid], “Hits from DSF”. In the case of `N#C/C(=C\c1ccc2ccccc2c1)C(=O)c1ccccc1` [(E)-2-(benzoyl)-3-naphthalen-2-ylprop-2-enenitrile], the “hit in DSF screen (able to bind TLX LBD, Tm shift 0.9°C or more), Table S1” value was “Hits from DSF”. For `CCN1CCN(C(=O)Cc2ccc(Nc3ncc(F)c(Nc4ccc(C(=O)Nc5ccccc5Cl)cc4)n3)cc2)CC1` [Aurora A Inhibitor I] the value was “Hits from DSF”; for `N#CCNC(=O)c1ccc(-c2ccnc(Nc3ccc(N4CCOCC4)cc3)n2)cc1` [CYT387], “Hits from DSF”. For `CCP(CC)CC.[Au+].[Cl-]` [Chlorogold; Triethylphosphane] the value was “Hits from DSF”; for `C[C@@H](NCCCc1cccc(C(F)(F)F)c1)c1cccc2ccccc12` [Cinacalcet hydrochloride, reference compound], “Hits from DSF”; for `Clc1ccccc1C(c1ccccc1)(c1ccccc1)n1ccnc1` [Clotrimazole, reference compound], “Hits from DSF”. Then `CC(C)(C)OC(=O)N[C@H]1CCCCC/C=C\[C@@H]2C[C@@]2(C(=O)NS(=O)(=O)C2CC2)NC(=O)[C@@H]2C[C@@H](OC(=O)N3Cc4cccc(F)c4C3)CN2C1=O` [Danoprevir], with “Hits from DSF”; and `CO[C@H]1C[C@@H]2CC[C@@H](C)[C@@](O)(O2)C(=O)C(=O)N2CCCC[C@H]2C(=O)O[C@H]([C@H](C)C[C@@H]2CC[C@@H](OP(C)(C)=O)[C@H](OC)C2)CC(=O)[C@H](C)/C=C(\C)[C@@H](O)[C@@H](OC)C(=O)[C@H](C)C[C@H](C)/C=C/C=C/C=C/1C` [Deforolimus], with “Hits from DSF”; and `[Cl][Cd][Cl]` [Dichlorocadmium], with “Hits from DSF”. Take `CO[C@H]1C[C@@H]2CC[C@@H](C)[C@@](O)(O2)C(=O)C(=O)N2CCCC[C@H]2C(=O)O[C@H]([C@H](C)C[C@@H]2CC[C@@H](OCCO)[C@H](OC)C2)CC(=O)[C@H](C)/C=C(\C)[C@@H](O)[C@@H](OC)C(=O)[C@H](C)C[C@H](C)/C=C/C=C/C=C/1C` [Everolimus (RAD001), Everolimus, reference compound]: the “hit in DSF screen (able to bind TLX LBD, Tm shift 0.9°C or more), Table S1” value was “Hits from DSF”. Then `CC(C)n1c(/C=C/C(O)CC(O)CC(=O)O)c(-c2ccc(F)cc2)c2ccccc21` (stereo not drawn) [Fluvastatin Sodium, reference compound], with “Hits from DSF”. Consider `CC(=O)N1CCN(c2ccc(OCC3COC(Cn4ccnc4)(c4ccc(Cl)cc4Cl)O3)cc2)CC1` (stereo not drawn) [Ketoconazole, reference compound], for which the “hit in DSF screen (able to bind TLX LBD, Tm shift 0.9°C or more), Table S1” value is given as “Hits from DSF”. As for `CCOC(=O)N1CCC(=C2c3ccc(Cl)cc3CCc3cccnc32)CC1` [Loratadine, reference compound], the “hit in DSF screen (able to bind TLX LBD, Tm shift 0.9°C or more), Table S1” value is reported as “Hits from DSF”.

Take `COc1cc(Nc2ncc3c(n2)-c2ccc(Cl)cc2C(c2c(F)cccc2OC)=NC3)ccc1C(=O)O` [MLN8237]: the “hit in DSF screen (able to bind TLX LBD, Tm shift 0.9°C or more), Table S1” value was “Hits from DSF”. For `Cc1ccc(NC(=O)c2ccc(CN3CCN(C)CC3)cc2)cc1Nc1nc(-c2cccnc2)cs1` [Masitinib], the “hit in DSF screen (able to bind TLX LBD, Tm shift 0.9°C or more), Table S1” value is listed as “Hits from DSF”. Consider `CC(C)c1cnn2c(NCc3ccccc3)cc(NCCCCCCN)nc12` [N5-(6-Aminohexyl)-3-isopropyl-N7-benzylpyrazolo[1,5-a]pyrimidine-5,7-diamine], for which the “hit in DSF screen (able to bind TLX LBD, Tm shift 0.9°C or more), Table S1” value was “Hits from DSF”. For `Nc1ncnc2c1c(-c1cccc(OCc3ccccc3)c1)cn2C1CC(CN2CCCC2)C1` (stereo not drawn) [NVP-ADW742] the value was “Hits from DSF”; for `COc1cccc2cc(-c3nc([C@H]4CC[C@H](C(=O)O)CC4)n4ncnc(N)c34)[nH]c12` [OSI-027], “Hits from DSF”; for `O=C(CCc1ccc(O)cc1)c1c(O)cc(O)cc1O` [Phloretin], “Hits from DSF”. For `CC(=O)[C@H]1CC[C@H]2[C@@H]3CCC4=CC(=O)CC[C@]4(C)[C@H]3CC[C@]12C` [Progesterone, reference compound] the value was “Hits from DSF”.

On to `O=C(c1ccc(OCCN2CCCCC2)cc1)c1c(-c2ccc(O)cc2)sc2cc(O)ccc12` [Raloxifene, reference compound], for which the “hit in DSF screen (able to bind TLX LBD, Tm shift 0.9°C or more), Table S1” value is given as “Hits from DSF”. Then `CC[C@H](CO)Nc1nc(NCc2ccccc2)c2ncn(C(C)C)c2n1` [Roscovitine (CYC202), Roscovitine], with “Hits from DSF”; and `Cn1cc(-c2ccc3nnc(Sc4ccc5ncccc5c4)n3n2)cn1` [SGX-523], with “Hits from DSF”; and `Cc1cc(C(C)Nc2ccccc2)c2nc(N3CCOCC3)cc(=O)n2c1` (stereo not drawn) [TGX-221], with “Hits from DSF”. Then `C[C@]12CC[C@H]3[C@@H](CCC4=CC(=O)CC[C@@]43C)[C@@H]1CC[C@@H]2OC(=O)CCC1CCCC1` [Testosterone cypionate, reference compound], with “Hits from DSF”. For `CCC[CH2][Pb]([Cl])([CH2]CCC)[CH2]CCC` [Tributyl(chloro)plumbane] the value was “Hits from DSF”. Regarding `CCC1=C[C@@H]2CN(C1)Cc1c([nH]c3ccccc13)[C@@](C(=O)OC)(c1cc3c(cc1OC)N(C)[C@H]1[C@@](O)(C(=O)OC)[C@H](OC(C)=O)[C@]4(CC)C=CCN5CC[C@]31[C@@H]54)C2` [Vinorelbine, reference compound], the “hit in DSF screen (able to bind TLX LBD, Tm shift 0.9°C or more), Table S1” value is listed as “Hits from DSF”. For the compound `FC(F)c1nc2ccccc2n1-c1nc(N2CCOCC2)nc(N2CCOCC2)n1` [ZSTK474], the “hit in DSF screen (able to bind TLX LBD, Tm shift 0.9°C or more), Table S1” value is listed as “Hits from DSF”. Regarding `CC(=O)OC(C)(C)/C=C/C(=O)[C@](C)(O)[C@H]1[C@H](O)C[C@@]2(C)[C@@H]3CC=C4[C@@H](C[C@H](O)C(=O)C4(C)C)[C@]3(C)C(=O)C[C@]12C` [[(E,6R)-6-[(2S,8S,9R,10R,13R,14S,16R,17R)-2,16-dihydroxy-4,4,9,13,14-pentamethyl-3,11-dioxo-2,7,8,10,12,15,16,17-octahydro-1H-cyclopenta[a]phenanthren-17-yl]-6-hydroxy-2-methyl-5-oxohept-3-en-2-yl] acetate], the “hit in DSF screen (able to bind TLX LBD, Tm shift 0.9°C or more), Table S1” value is given as “Hits from DSF”.

`CNC(=O)ON(C(C)=O)C(=O)NC` [[acetyl(methylcarbamoyl)amino] N-methylcarbamate]: the “hit in DSF screen (able to bind TLX LBD, Tm shift 0.9°C or more), Table S1” value is “Hits from DSF”.
